How the values were obtained:
[1] = clinical trials; affecting taste sensation via the tongue; cited from earlier work
[2] = target: T1, human P2X3 receptor (Homo sapiens, UniProt P56373); assay: Intracellular calcium measurement, antagonist activity at human P2X3 receptors (hP2X3 1321N1), Fluo8; type: cell-based; design: expressed in transfected cells; host or cells: human astrocytoma 1321N1 (1312N1 [sic]); conditions: column 3); 1321N1 cells, human P2X3, Fluo8, agonist ATP at EC50
T1 sequence (P56373 1-397): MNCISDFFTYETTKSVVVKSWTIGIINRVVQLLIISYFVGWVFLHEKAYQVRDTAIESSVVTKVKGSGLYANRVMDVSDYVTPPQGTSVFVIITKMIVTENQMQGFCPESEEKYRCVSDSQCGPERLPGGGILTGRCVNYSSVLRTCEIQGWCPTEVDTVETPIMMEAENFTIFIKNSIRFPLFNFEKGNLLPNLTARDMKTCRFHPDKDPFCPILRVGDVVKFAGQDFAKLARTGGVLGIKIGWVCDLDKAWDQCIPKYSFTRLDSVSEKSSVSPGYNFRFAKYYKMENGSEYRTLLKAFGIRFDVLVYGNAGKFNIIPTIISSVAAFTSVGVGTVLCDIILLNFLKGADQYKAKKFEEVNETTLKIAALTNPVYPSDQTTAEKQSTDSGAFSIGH
In short: (§1)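 Antagonism was assessed by decrease of the Fluo8 calcium signal after ATP challenge, with ATP dosed at the EC50 of whichever receptor was tested. Stable 1321N1 astrocytoma lines expressed either human P2X3 or both P2X2 and P2X3, and were dye-loaded 60 min before a 10 min compound incubation.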

[3] = target: T1, human P2X3 receptor; assay: Intracellular calcium measurement to assess antagonist activity at human P2X3 receptors (hP2X3 FLIPR); type: cell-based; design: expressed in transfected cells; host or cells: human astrocytoma 1321N1 (1312N1 [sic]); conditions: head prints (1321N1); read-out: 1) hP2X3 IC50 [nM] (1321N1)
Description: 1) Intracellular Calcium Measurement to Assess Antagonist Activity at Human P2X3 Receptors (hP2X3 FLIPR)
A fluorescent imaging plate reader (FLEX/FLIPR station; Molecular Devices) was used to monitor intracellular calcium levels using the calcium-chelating dye Fluo-4 (Molecular Probes). The excitation and emission wavelengths used to monitor fluorescence were 470-495 nm and 515-575 nm, respectively. The human astrocytoma […] cells expressing purinergic receptors P2X3 (human) were plated at a density of 15,000 cells/well in collagen—coated 384-well plates approximately 20 hours before beginning the assay. […] The dye supernatant was removed and replaced with 45 μl probenecid buffer (Hank's balanced salt solution, 20 mM HEPES, 0.5 mM CaCl2, 0.5 mM MgCl2, 0.1% BSA, 5 mM probenecid, 10 mM D-glucose monohydrate, pH=7.4). The test compounds were added in a volume of 5 μl and allowed to incubate for 30 min at 37° C. The final assay DMSO concentration is 1%. […] The fluorescence was measured for an interval of 90 sec at 2 sec intervals and analyzed based on the increase in peak relative fluorescence units (RFU) compared to the basal fluorescence. Peak fluorescence was used to determine the response to agonist obtained at each concentration of test compound by the following equation: Response=100*(RFU(test compound)−RFU(control))/(RFU(DMSO)−RFU(control))
The Examples were tested in triplicates per plate and mean values were plotted in Excel XLFit to determine IC50 values at the human P2X3 and human P2X2/3 receptors, percentage of maximal inhibition and the Hill coefficients.

[4] = target: T1, human P2X3 receptor; assay: Intracellular calcium measurement to assess antagonist activity at human P2X3 receptors (hP2X3 CHO), photina luminescence; type: cell-based; design: expressed in transfected cells; host or cells: Chinese hamster ovary (CHO) cells; conditions: column 2), CHO cells, agonist α,β-methylene-ATP at EC50
In short: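 Antagonism read as lowered photina luminescence after agonist stimulation in recombinant hP2X3/photina CHO cells. Cells seeded one day earlier (30 °C) and reconstituted with 5 μg/ml coelenterazine in 2 mM Ca-tyrode buffer for 3 h at 37 °C before measurement.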

[5] = target: T2, human P2X2/3 receptors (Homo sapiens, UniProt P56373+Q9UBL9); assay: Intracellular calcium measurement, antagonist activity at human P2X2/3 receptors (hP2X23 1321N1), Fluo8; type: cell-based; conditions: for IC50: column 4); 1321N1 cells, human P2X2/3, Fluo8, agonist ATP at EC50; read-out: 4) hP2X2/3 IC50 [nM] (1321N1); for hP2X23/hP2X3* Selectivity (1321N1): ratio of column 4) hP2X2/3 to column 3) hP2X3, 1321N1
T2 construct: expressed in transfected cells; host or cells: human astrocytoma 1321N1 (1312N1 [sic])
T2 sequence (P56373 1-397): T1 sequence (P56373 1-397)
T2 sequence (Q9UBL9 1-471): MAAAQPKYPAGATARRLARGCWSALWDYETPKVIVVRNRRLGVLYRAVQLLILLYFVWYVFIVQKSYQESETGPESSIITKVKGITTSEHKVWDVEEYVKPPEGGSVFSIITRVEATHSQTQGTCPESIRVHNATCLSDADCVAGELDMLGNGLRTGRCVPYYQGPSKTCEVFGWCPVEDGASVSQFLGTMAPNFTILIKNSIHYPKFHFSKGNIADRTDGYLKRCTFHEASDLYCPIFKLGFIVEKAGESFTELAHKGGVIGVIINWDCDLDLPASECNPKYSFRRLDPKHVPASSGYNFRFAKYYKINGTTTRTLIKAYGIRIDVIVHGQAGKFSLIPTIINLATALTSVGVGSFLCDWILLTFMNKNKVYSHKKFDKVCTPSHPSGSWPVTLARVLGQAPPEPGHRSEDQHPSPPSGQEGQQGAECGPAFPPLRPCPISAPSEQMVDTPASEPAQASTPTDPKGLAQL
In short: as §1

Row | IC50 [2] [nM] | IC50 [3] [nM] | IC50 [4] [nM] | IC50 [5] [nM] | hP2X23/hP2X3* Selectivity (1321N1) [5] | Structure (SMILES) | taste disturbances in treated subjects [1]
1 | – | – | – | – | – | COc1cc(C(C)C)c(Oc2cnc(N)nc2N)cc1S(N)(=O)=O [AF-219] | leads to taste disturbances
2 | 155 | 117 | 215 | 8700 | 56 | Cc1cc2n(CC(=O)Nc3ccc(F)cn3)c3c(c(=O)n2n1)CN([C@@H](C)C1CC1)C3=O [Example 50] | –
3 | 253 | 311 | 160 | 11500 | 46 | CC(C)c1cc2n(CC(=O)Nc3ccc(F)cn3)c3c(c(=O)n2n1)CN(CC(C)(C)O)C3=O [Example 51] | –
4 | 71 | 52 | 43 | > 23000 | >324 | COC[C@@H](C)N1Cc2c(n(CC(=O)Nc3ccc(F)cn3)c3cc(C)nn3c2=O)C1=O [Example 52] | –
5 | 200 | 133 | 195 | > 22000 | >110 | CC[C@H](C)N1Cc2c(n(CC(=O)Nc3ccc(F)cn3)c3cc(C)nn3c2=O)C1=O [Example 53] | –
6 | 263 | 215 | 155 | > 32000 | >122 | C[C@H](O)CN1Cc2c(n(CC(=O)Nc3ccc(F)cn3)c3cc(C(C)(C)C)nn3c2=O)C1=O [Example 54] | –
7 | 117 | 104 | 195 | 10800 | 93 | Cc1cc2n(CC(=O)Nc3ccc(F)cn3)c3c(c(=O)n2n1)CN([C@H](C)C1CC1)C3=O [Example 55] | –
8 | 119 | 40 | 59 | 6850 | 58 | CC(C)(C)c1cc2n(CC(=O)Nc3ccc(F)cn3)c3c(c(=O)n2n1)CN(CCO)C3=O [Example 135, 2-[2-tert-butyl-6-(2-hydroxyethyl)-5,8-dioxo-5,6,7,8-tetrahydro-4H-pyrazolo[1,5-a]pyrrolo[3,4-d]pyrimidin-4-yl]-N-(5-fluoropyridin-2-yl)acetamide] | –
9 | 86 | 56 | 32 | 9150 | 107 | CC(C)(C)c1cc2n(CC(=O)Nc3ccc(F)cn3)c3c(c(=O)n2n1)CN(CCN1CCOCC1)C3=O [Example 138, 2-{2-tert-butyl-6-[2-(morpholin-4-yl)ethyl]-5,8-dioxo-5,6,7,8-tetrahydro-4H-pyrazolo[1,5-a]pyrrolo[3,4-d]pyrimidin-4-yl}-N-(5-fluoropyridin-2-yl)acetamide] | –
10 | 400 | 237 | 420 | > 32000 | >80 | CN(C)CCN1Cc2c(n(CC(=O)Nc3ccc(F)cn3)c3cc(C(C)(C)C)nn3c2=O)C1=O [Example 139, 2-{2-tert-butyl-6-[2-(dimethylamino)ethyl]-5,8-dioxo-5,6,7,8-tetrahydro-4H-pyrazolo[1,5-a]pyrrolo[3,4-d]pyrimidin-4-yl}-N-(5-fluoropyridin-2-yl)acetamide] | –

Reference: US11319324B2, “Pyrazolo-pyrrolo-pyrimidine-dione derivatives as P2X3 inhibitors” (Bayer Aktiengesellschaft, priority 2017, dated 2022)
